Measurements published in publication PMC10535762 (2023).

Test system: poly A–poly U (pApU, ds-RNA) (RNA, polymer) A/U
Test: fluorimetric titration, Scatchard fit
Conditions: Na+ (sodium cacodylate, I = 0.05 M), pH 7.0, 25 °C, recalculated for fixed n = 0.2 [bound dye]/[polynucleotide], c(nucleobase), per base

SMILES | log Ks (TB-p 5 µM) | log Ks (TB-AA 3 µM)
C#CC[N+](C)(C)c1cc(C)c(B(c2c(C)cccc2C)c2c(C)cc(N(C)C)cc2C)c(C)c1 | 7.1 | 
Cc1cccc(C)c1B(c1c(C)cc(N(C)C)cc1C)c1c(C)cc([N+](C)(C)Cc2cn(CC[C@H](NC(=O)OCC3c4ccccc4-c4ccccc43)C(=O)O)nn2)cc1C |  | 6.0
